# *1 amine or outer side, *2 acyl side, *3 side chain or, on linkers, in order; H or OH if unused. Where a SMILES comes first, the peptide text is derived from it. Bridges are numbered along the chain shown (N, C = ends). [ ]: non-standard residue; d: D form. The star is where a group is joined. ξ: configuration not given here. X15 = CCCCN(CC(=O)C(C)[C@@H](CC(C)C)C(=O)[*:2])[*:1]; X5 = O=C([C@H](CCC[C@@H]1CC(F)(F)CN1)N[*:1])[*:2]; CH2(1,2,4-oxadiazolon-3-yl) = O=c1[nH]c(C*)no1; Pro(4,4-F2)ψ(CH2) = FC1(F)CN[C@H](C*)C1; X9 = O=C([C@@H](CN[*:1])COCCO)[*:2]; Propyl(2,2-Me2,3-OH) = CC(C)(CO)C*; Hyp = O=C(O)[C@@H]1C[C@@H](O)CN1; NMeF = CN[C@@H](Cc1ccccc1)C(=O)O; NMeGABA = CN(CCCC(=O)[*:2])[*:1]; CH2CH(OH)CF3 = OC(C*)C(F)(F)F; NMeL = CN[C@@H](CC(C)C)C(=O)O; dNMeL = CN[C@H](CC(C)C)C(=O)O; Butyl(3S-OH) = C[C@H](O)CC*; NMeV = CN[C@H](C(=O)O)C(C)C; NMeAbu = CC[C@H](NC)C(=O)O; Pip = O=C(O)[C@@H]1CCCCN1; NMeA = CN[C@@H](C)C(=O)O; Piperidide = C1CCN(*)CC1; dNMeA = CN[C@H](C)C(=O)O; NBuGly = CCCCNCC(=O)O; NPrGly = CCCNCC(=O)O; ξNMeA = CNC(C)C(=O)O; ξV = CC(C)C(N)C(=O)O; Ethyl(2-OH) = OCC*; ξS = NC(CO)C(=O)O; Sar = CNCC(=O)O; tBu = CC(C)(C)*
# Assay: Membrane permeability test of cyclic peptides (Caco-2, modified/improved method of WO 2018/124162)
# Details: human, Caco-2, Caco-2 (cm/sec), Table 36; Papp; sequences having Papp ≥ 1.0 × 10^−6 at ARC = 3
row,SMILES,Papp [×10⁻⁶ cm/s]
1,CC[C@H](C)[C@@H]1NC(=O)[C@@H](C)N(C)C(=O)C[C@@H](C(=O)N(C)[C@@H](Cc2ccccc2)C(=O)N[C@@H](C)C(=O)N2CCCCC2)NC(=O)[C@H](Cc2ccccc2)N(C)C(=O)CN(C)C(=O)[C@H]([C@@H](C)O)NC(=O)[C@H](C)N(C)C(=O)[C@H](C(C)C)N(C)C(=O)[C@H](Cc2ccccc2)NC(=O)[C@H](CC(C)C)N(C)C(=O)[C@H](CC(C)C)N(C)C1=O [pd222] ([dNMeA]I[NMeL][NMeL]F[NMeV][NMeA]T[Sar][NMeF]D[NMeF]A-Piperidide; lactam N-11),1.1

# Same assay, conditions: human, Caco-2, Caco-2 (cm/sec), membrane permeability of cyclic peptides, Caco-2
row,SMILES,Papp [×10⁻⁶ cm/s]
1,"CC(C)C[C@@H]1NC(=O)[C@H](Cc2ccccc2)N(C)C(=O)[C@H](CC(C)C)N(C)C(=O)[C@H](COCC(C)(C)CO)NC(=O)[C@H](CC(C)C)N(C)C(=O)C[C@@H](C(=O)N2CCCCC2)NC(=O)[C@H](CC(C)C)N(C)C(=O)CN(C)C(=O)[C@H]([C@@H](C)O)NC(=O)[C@H](CC(C)C)N(C)C(=O)[C@H](Cc2ccccc2)N(C)C1=O [AP125] ([NMeL]S(Propyl(2,2-Me2,3-OH))[NMeL][NMeF]L[NMeF][NMeL]T[Sar][NMeL]D-Piperidide; lactam N-11)",0.74
2,"CCCCN1CC(=O)N(C)[C@@H](CC(C)C)C(=O)N[C@H](C(=O)N2CCCCC2)CC(=O)N(C)[C@@H](CC(C)C)C(=O)NC(COCc2noc(=O)[nH]2)C(=O)N(C)[C@@H](CC(C)C)C(=O)N(C)[C@@H](CC(C)C)C(=O)N[C@@H](C(C)C)C(=O)N(C)[C@@H](Cc2ccccc2)C(=O)N(C)[C@@H](CC(C)C)C(=O)N[C@@H]([C@@H](C)O)C1=O (stereo partly drawn) [AP48] ([NMeL][ξS](CH2(1,2,4-oxadiazolon-3-yl))[NMeL][NMeL]V[NMeF][NMeL]T[NBuGly][NMeL]D-Piperidide; lactam N-11)",0.4
3,"CCCCN1CC(=O)N(C)[C@@H](CC(C)C)C(=O)N[C@H](C(=O)N2CCCCC2)CC(=O)N(C)[C@@H](CC)C(=O)N[C@@H](CC(C)C)C(=O)N(C)[C@@H](CC(C)C)C(=O)N(C)[C@@H](Cc2ccccc2)C(=O)NC(COCc2noc(=O)[nH]2)C(=O)N(C)[C@@H](CC(C)C)C(=O)N(C)[C@@H](CC(C)C)C(=O)N[C@@H]([C@@H](C)O)C1=O (stereo partly drawn) [AP47] ([NMeAbu]L[NMeL][NMeF][ξS](CH2(1,2,4-oxadiazolon-3-yl))[NMeL][NMeL]T[NBuGly][NMeL]D-Piperidide; lactam N-11)",5.3
4,CCCCN1CC(=O)N(C)[C@@H](CC(C)C)C(=O)N[C@H](C(=O)N2CCCCC2)CC(=O)N(C)[C@@H](C(C)C)C(=O)N[C@@H](CC(C)C)C(=O)N(C)[C@@H](CC(C)C)C(=O)N(C)[C@@H](Cc2ccccc2)C(=O)N[C@@H](COCC[C@H](C)O)C(=O)N(C)[C@@H](Cc2ccccc2)C(=O)N(C)[C@@H](C(C)C)C(=O)N[C@@H]([C@@H](C)O)C1=O [AP107] ([NMeV]L[NMeL][NMeF]S(Butyl(3S-OH))[NMeF][NMeV]T[NBuGly][NMeL]D-Piperidide; lactam N-11),0.93
5,"CCCCN1CC(=O)N(C)[C@@H](CC(C)C)C(=O)NC(COCc2noc(=O)[nH]2)C(=O)N(C)[C@@H](CC(C)C)C(=O)N(C)[C@@H](CC(C)C)C(=O)N[C@H](C(=O)N2CCCCC2)CC(=O)N[C@H](C(C)C)C(=O)N(C)[C@@H](Cc2ccccc2)C(=O)N[C@@H](CC(C)C)C(=O)N(C)[C@@H](CC(C)C)C(=O)N[C@@H]([C@@H](C)O)C1=O (stereo partly drawn) [AP43] ([dV][NMeF]L[NMeL]T[NBuGly][NMeL][ξS](CH2(1,2,4-oxadiazolon-3-yl))[NMeL][NMeL]D-Piperidide; lactam N-11)",0.82
6,CCCN1CC(=O)N(C)[C@@H](CC(C)C)C(=O)N[C@H](C(=O)N2CCCCC2)CC(=O)N(C)[C@@H](CC(C)C)C(=O)N[C@@H](Cc2ccccc2)C(=O)N(C)[C@@H](CC(C)C)C(=O)N(C)[C@@H](CC(C)C)C(=O)NC[C@@H](COCCO)C(=O)N(C)[C@@H](Cc2ccccc2)C(=O)N(C)[C@@H](CC(C)C)C(=O)N[C@@H]([C@@H](C)O)C1=O [AP132] ([NMeL]F[NMeL][NMeL][X9][NMeF][NMeL]T[NPrGly][NMeL]D-Piperidide; lactam N-11),1.3
7,"CCCCN1CC(=O)C(C)[C@@H](CC(C)C)C(=O)NC(COCc2noc(=O)[nH]2)C(=O)N(C)[C@@H](Cc2ccccc2)C(=O)N(C)[C@@H](CC(C)C)C(=O)N[C@H](C(=O)N2CCCCC2)CC(=O)N[C@H](CC(C)C)C(=O)N(C)[C@@H](CC(C)C)C(=O)N[C@@H]([C@@H](C)CC)C(=O)N(C)[C@@H](CC(C)C)C(=O)N[C@@H]([C@@H](C)O)C1=O (stereo partly drawn) [AP44] ([dL][NMeL]I[NMeL]T[X15][ξS](CH2(1,2,4-oxadiazolon-3-yl))[NMeF][NMeL]D-Piperidide; lactam N-10)",0.3
8,CC(C)C[C@@H]1NC(=O)[C@@H]2CCCCN2C(=O)[C@H](Cc2ccccc2)NC(=O)[C@H](C(C)C)N(C)C(=O)[C@H](CC(C)C)N(C)C(=O)[C@H]([C@@H](C)O)NC(=O)[C@H](CC(C)C)N(C)C(=O)[C@@H]2C[C@@H](OCCO)CN2C(=O)[C@H](CC(C)C)N(C)C(=O)[C@@H](CC(C)C)N(C)C(=O)C[C@@H](C(=O)N2CCCCC2)NC1=O [AP236] ([dNMeL][NMeL][Hyp](Ethyl(2-OH))[NMeL]T[NMeL][NMeV]F[Pip]LD-Piperidide; lactam N-11),3.8

# Same assay, conditions: human, Caco-2, Caco-2 (membrane permeability), Table 6, cyclic peptides containing Ser(1-CF3-EtOH) (C) or Hnl(7-F3-6-OH) (D)
row,SMILES,Papp [×10⁻⁶ cm/s]
1,CC(C)C[C@H]1C(=O)N[C@@H](COC(C)(C)C)C(=O)N(C)[C@@H](Cc2ccccc2)C(=O)N(C)[C@@H](CC(C)C)C(=O)N[C@H](C(=O)N2CCCCC2)CC(=O)N[C@H](C(C)C)C(=O)N(C)[C@@H](Cc2ccccc2)C(=O)N[C@@H](COCC(O)C(F)(F)F)C(=O)N(C)[C@@H](CC(C)C)C(=O)NC(C(C)C)C(=O)N(C)CC(=O)N1C (stereo partly drawn) [Compound C11] ([dV][NMeF]S(CH2CH(OH)CF3)[NMeL][ξV][Sar][NMeL]S(tBu)[NMeF][NMeL]D-Piperidide; lactam N-11),0.23

# Same assay, conditions: human, Caco-2, Caco-2 (membrane permeability), Table 10, cyclic peptides containing Ser(S-4-F2-Pyrro-Me) (G) or Nva(2-R-4-F2-Pyrro) (H)
row,SMILES,Papp [×10⁻⁶ cm/s]
1,CCCCN1CC(=O)N(C)[C@@H](Cc2ccccc2)C(=O)N(C)[C@@H](CC(C)C)C(=O)N[C@@H](CCC[C@@H]2CC(F)(F)CN2)C(=O)N(C)[C@@H](CC(C)C)C(=O)N[C@H](C(=O)N2CCCCC2)CC(=O)N(C)CC(=O)N(C)[C@@H](CC(C)C)C(=O)N[C@@H](C(C)C)C(=O)N(C)[C@@H](CC(C)C)C(=O)N[C@@H]([C@@H](C)O)C1=O [Compound H07] ([Sar][NMeL]V[NMeL]T[NBuGly][NMeF][NMeL][X5][NMeL]D-Piperidide; lactam N-11),0.16
2,"CCCCN1CC(=O)N(C)[C@@H](CC(C)C)C(=O)N[C@@H](COC(C)(C)C)C(=O)N(C)[C@@H](Cc2ccccc2)C(=O)N(C)[C@@H](CC)C(=O)N[C@H](C(=O)N2CCCCC2)CC(=O)N[C@H](C)C(=O)N(C)[C@@H](CC)C(=O)N[C@@H](C(C)C)C(=O)N(C)[C@@H](CC(C)C)C(=O)N[C@@H](COC[C@@H]2CC(F)(F)CN2)C1=O [Compound G08] ([dA][NMeAbu]V[NMeL]S(Pro(4,4-F2)ψ(CH2))[NBuGly][NMeL]S(tBu)[NMeF][NMeAbu]D-Piperidide; lactam N-11)",1.3
3,"CCCCN1CC(=O)N(C)[C@@H](Cc2ccccc2)C(=O)N(C)[C@@H](CC(C)C)C(=O)N[C@@H](CC(C)C)C(=O)N(C)[C@@H](CC(C)C)C(=O)N[C@H](C(=O)N2CCCCC2)CC(=O)N(C)CC(=O)N(C)[C@@H](CC)C(=O)N[C@@H](C(C)C)C(=O)N(C)[C@@H](CC)C(=O)N[C@@H](COC[C@@H]2CC(F)(F)CN2)C1=O [Compound G11] ([Sar][NMeAbu]V[NMeAbu]S(Pro(4,4-F2)ψ(CH2))[NBuGly][NMeF][NMeL]L[NMeL]D-Piperidide; lactam N-11)",1.5
4,"CCCCN1CC(=O)N(C)[C@@H](CC)C(=O)N[C@@H](COC[C@@H]2CC(F)(F)CN2)C(=O)N(C)[C@@H](Cc2ccccc2)C(=O)N(C)[C@@H](CC)C(=O)N[C@H](C(=O)N2CCCCC2)CC(=O)N[C@H](CC(C)C)C(=O)N(C)[C@@H](CC(C)C)C(=O)N[C@@H](C(C)C)C(=O)N(C)[C@@H](CC(C)C)C(=O)N[C@@H]([C@@H](C)O)C1=O [Compound G02] ([dL][NMeL]V[NMeL]T[NBuGly][NMeAbu]S(Pro(4,4-F2)ψ(CH2))[NMeF][NMeAbu]D-Piperidide; lactam N-11)",0.4
5,CC(C)C[C@H]1C(=O)N[C@@H](C(C)C)C(=O)N(C)[C@@H](Cc2ccccc2)C(=O)N(C)[C@@H](C)C(=O)N[C@@H](COC(C)(C)C)C(=O)N(C)[C@@H](CC(C)C)C(=O)N[C@@H](CCC[C@@H]2CC(F)(F)CN2)C(=O)N(C)[C@@H](CC(C)C)C(=O)N(C)[C@@H](CC(C)C)C(=O)N[C@H](C(=O)N2CCCCC2)CC(=O)N(C)CCCC(=O)N1C [Compound H09] ([NMeGABA][NMeL]V[NMeF][NMeA]S(tBu)[NMeL][X5][NMeL][NMeL]D-Piperidide; lactam N-11),0.52
6,CCCCN1CC(=O)N(C)[C@@H](CC(C)C)C(=O)N[C@@H](COC(C)(C)C)C(=O)N(C)[C@@H](Cc2ccccc2)C(=O)N(C)[C@@H](C)C(=O)N[C@H](C(=O)N2CCCCC2)CC(=O)N[C@H](C)C(=O)N(C)[C@@H](CC)C(=O)N[C@@H](C(C)C)C(=O)N(C)[C@@H](CC(C)C)C(=O)N[C@@H](CCC[C@@H]2CC(F)(F)CN2)C1=O [Compound H08] ([dA][NMeAbu]V[NMeL][X5][NBuGly][NMeL]S(tBu)[NMeF][NMeA]D-Piperidide; lactam N-11),0.92
7,"CCCCN1CC(=O)N(C)[C@@H](CC(C)C)C(=O)N[C@H](C(=O)N2CCCCC2)CC(=O)N(C)C(C)C(=O)N[C@@H](COC[C@@H]2CC(F)(F)CN2)C(=O)N(C)[C@@H](CC(C)C)C(=O)N(C)[C@@H](CC)C(=O)N[C@@H](C(C)C)C(=O)N(C)[C@@H](Cc2ccccc2)C(=O)N(C)[C@@H](CC(C)C)C(=O)N[C@@H]([C@@H](C)O)C1=O (stereo partly drawn) [Compound G05] ([ξNMeA]S(Pro(4,4-F2)ψ(CH2))[NMeL][NMeAbu]V[NMeF][NMeL]T[NBuGly][NMeL]D-Piperidide; lactam N-11)",3.2

# Reference: US20230096766A1, “AMINO ACID HAVING FUNCTIONAL GROUP CAPABLE OF INTERMOLECULAR HYDROGEN BONDING, PEPTIDE COMPOUND CONTAINING SAME AND METHOD FOR PRODUCTION THEREOF” (Chugai Seiyaku Kabushiki Kaisha, priority 2018, published 2023)
